Results on 13 molecules are retold here after patent US11186566B2, “Modulator of cystic fibrosis transmembrane conductance regulator, pharmaceutical compositions, methods of treatment, and process for making the modulator” (Vertex Pharmaceuticals Incorporated, priority 2016, dated 2021).

One data set in a line: Rat IV and PO PK studies. Particulars: male, Sprague-Dawley, plasma; for bioavailability / AUC: oral; for bioavailability: read-out: Rat po % F; for clearance: intravenous, 3.0 mg/kg, read-out: Rat iv CL. It is filed as in vivo, male Sprague-Dawley rats. The method, then: 5C. Experimental Protocol for Rat IV and PO PK Studies
[…] […] Analyses of plasma and dose preparations were performed using LC/MS/MS.
Plasma concentration-time profiles of the tested compound in Sprague-Dawley rats at scheduled (nominal) sampling times were analyzed by noncompartmental pharmacokinetic methods using PK function within Watson LIMS software, Version 7.4.2 (Thermo Scientific Inc, Waltham, Mass.). AUC values were calculated using the linear trapezoidal rule.

A further data set addresses human PXR (Homo sapiens (Human), UniProt O75469). Description: PXR assay (PXR mediated CYP3A4 induction, DPX-2 cell line). It is filed as cell-based. Conditions: DPX-2 cells, 48 hours, 0.1 to 60 μM. The method, then: 5D. Experimental Protocol for PXR Assay
The propensity for PXR mediated CYP3A4 induction is assessed using the DPX-2 cell line in vitro. This cell line, which has been licensed from Puracyp Inc. was derived from HepG2 cells and has been stably transfected with genes encoding human PXR as well as a modified luciferase reporter linked to the CYP3A4 promoter region and related distal and proximal enhancers.
The assay is run in 384 well format and each test article is administered in 11 doses ranging from 0.1 to 60 μM. On day 1, DPX-2 cells which have previously been expanded in-house and cryopreserved are thawed and seeded in tissue culture plates. The following day, media is changed and cells are cultured in media containing test article, vehicle control or the positive control compound, the clinically validated CYP3A4 inducer rifampicin. Cells are cultured in the presence of test article for 48 hours and then cell viability is assessed using fluorescence based assay (Cell Titer-Fluor, Promega) with an EnVision Plate Reader (PerkinElmer). Subsequently, CYP3A4 transactivation, which is proportional to luciferase activity, is measured by reading luminescense using the Promega One-Glo reagent system using the same plate reader.
Data processing within the Genedata software package allows reporting of max fold induction compared to vehicle control, an EC50 value for CYP3A4 inducers and an 11 point-dose response curve.

The target in another data set is F508del-CFTR (Homo sapiens (Human), UniProt P13569, DEL508-508). Put plainly: Membrane potential optical (fluorescent voltage sensing dye, FLIPR III) HTS assay for F508del-CFTR modulators. It is filed as cell-based. In outline: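 NIH3T3 mouse fibroblasts stably expressing F508del-CFTR were seeded on matrigel-coated plates for 18–24 h at 37 °C. For correction assays they were cultured with or without compound for that period. Membrane potential was read on FLIPR III with voltage-sensing dyes, using a pH 7.4 NaCl/HEPES bath and a chloride-free gluconate substitute solution.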
Chain of F508del-CFTR (P13569 other isoform, or with tags, fused parts or gaps del F508-F508): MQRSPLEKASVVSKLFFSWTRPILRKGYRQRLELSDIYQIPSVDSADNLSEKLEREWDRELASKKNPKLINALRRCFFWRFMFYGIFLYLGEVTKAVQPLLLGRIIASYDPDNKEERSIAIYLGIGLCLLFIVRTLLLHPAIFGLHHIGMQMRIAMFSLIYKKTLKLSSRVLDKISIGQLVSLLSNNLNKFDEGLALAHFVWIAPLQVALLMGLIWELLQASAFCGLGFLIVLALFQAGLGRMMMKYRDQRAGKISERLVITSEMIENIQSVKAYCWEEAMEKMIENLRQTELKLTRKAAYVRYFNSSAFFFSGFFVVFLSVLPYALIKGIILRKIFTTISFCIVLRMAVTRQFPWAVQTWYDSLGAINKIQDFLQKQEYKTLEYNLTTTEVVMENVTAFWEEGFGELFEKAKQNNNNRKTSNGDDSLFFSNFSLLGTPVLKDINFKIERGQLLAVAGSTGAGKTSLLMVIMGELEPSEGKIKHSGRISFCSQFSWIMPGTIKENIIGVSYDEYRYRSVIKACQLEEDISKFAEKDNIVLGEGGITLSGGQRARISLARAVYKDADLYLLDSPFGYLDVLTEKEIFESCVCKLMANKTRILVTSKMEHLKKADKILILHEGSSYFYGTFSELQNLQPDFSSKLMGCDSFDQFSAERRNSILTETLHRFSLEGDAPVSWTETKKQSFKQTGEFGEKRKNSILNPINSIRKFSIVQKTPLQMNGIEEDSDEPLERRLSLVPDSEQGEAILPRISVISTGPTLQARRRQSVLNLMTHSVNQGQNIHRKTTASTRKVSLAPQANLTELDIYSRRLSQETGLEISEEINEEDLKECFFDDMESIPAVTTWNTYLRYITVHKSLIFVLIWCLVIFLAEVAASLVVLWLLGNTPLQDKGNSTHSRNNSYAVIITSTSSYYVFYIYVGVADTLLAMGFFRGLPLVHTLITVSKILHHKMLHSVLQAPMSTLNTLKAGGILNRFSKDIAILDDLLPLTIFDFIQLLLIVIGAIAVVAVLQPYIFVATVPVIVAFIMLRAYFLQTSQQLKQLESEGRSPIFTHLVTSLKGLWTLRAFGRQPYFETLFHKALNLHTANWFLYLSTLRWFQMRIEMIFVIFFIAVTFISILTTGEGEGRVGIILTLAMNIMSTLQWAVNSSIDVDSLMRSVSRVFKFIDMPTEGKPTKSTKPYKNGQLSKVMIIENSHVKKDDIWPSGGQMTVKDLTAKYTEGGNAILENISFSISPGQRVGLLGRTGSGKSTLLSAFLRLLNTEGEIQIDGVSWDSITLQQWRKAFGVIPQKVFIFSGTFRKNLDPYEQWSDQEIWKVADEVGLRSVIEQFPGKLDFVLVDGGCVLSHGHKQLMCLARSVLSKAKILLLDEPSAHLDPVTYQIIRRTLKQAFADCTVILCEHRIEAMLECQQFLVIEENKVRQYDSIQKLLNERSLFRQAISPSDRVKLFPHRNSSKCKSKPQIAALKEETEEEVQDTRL

The mark [1] stands for this setting: F508del NIH 3T3 cells, assay 5A-A1, read-out: CFTRdF508 EC50.
Setting [2] is: Table 9, read-out: CFTR dF508 EC50.

Like-named read-outs stand apart in the source and are kept apart here. Bounds are passed on as bounds.

Chain of human PXR (O75469 whole entry): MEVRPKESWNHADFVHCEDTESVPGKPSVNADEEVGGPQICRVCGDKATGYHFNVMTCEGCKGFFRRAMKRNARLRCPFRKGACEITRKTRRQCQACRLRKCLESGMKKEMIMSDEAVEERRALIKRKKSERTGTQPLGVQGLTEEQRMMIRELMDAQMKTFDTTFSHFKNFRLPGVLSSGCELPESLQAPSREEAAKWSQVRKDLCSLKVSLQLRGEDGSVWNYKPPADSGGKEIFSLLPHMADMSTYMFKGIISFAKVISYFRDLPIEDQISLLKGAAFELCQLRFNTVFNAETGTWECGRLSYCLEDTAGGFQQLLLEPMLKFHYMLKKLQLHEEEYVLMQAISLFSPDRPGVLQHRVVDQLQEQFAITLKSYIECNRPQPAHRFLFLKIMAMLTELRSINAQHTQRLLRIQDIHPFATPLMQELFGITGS

The AUC is concentration integrated over time. Consider `C[C@@H]1CN(c2nc(-n3ccc(OCC(C)(C)C)n3)ccc2C(=O)NS(=O)(=O)c2cccnc2N)C(C)(C)C1` [Comp. A, reference compound], for which, in “Rat IV and PO PK studies” (3 mg/kg), the bioavailability was found to be 28%. For the same molecule, the clearance in “Rat IV and PO PK studies” was 1.07 L/h/kg. In “Rat IV and PO PK studies” (10 mg/kg for Compound A, read-out: Rat po AUC), the AUC was found to be 1.2 µg·h/mL. Also, the “PXR Max Induction (% of rifampicin)” value at human PXR is 2 % of rifampicin.
Broadly, the EC50 is the concentration at which the effect is half-maximal. Consider `C[C@@H]1CN(c2nc(-n3ccc(OCC4C(C)(C)C4(C)C)n3)ccc2C(=O)NS(=O)(=O)c2ccccc2)C(C)(C)C1` [Comp. 30, N-(Benzenesulfonyl)-6-[3-[(2,2,3,3-tetramethylcyclopropyl)methoxy]pyrazol-1-yl]-2-[(4S)-2,2,4-trimethylpyrrolidin-1-yl]pyridine-3-carboxamide], for which, in “Rat IV and PO PK studies” (3 mg/kg), the bioavailability came out at 26% and the AUC turned out to be 2.3 µg·h/mL. The clearance in “Rat IV and PO PK studies” turned out to be 0.366 L/h/kg. Also, at F508del-CFTR (setting [1]), the EC50 was below 0.1 µM. Further, at F508del-CFTR (setting [2]), the EC50 was found to be 0.09 µM. For the same molecule, the “PXR Max Induction (% of rifampicin)” value at human PXR is recorded as 0 % of rifampicin.
With `C[C@@H]1CN(c2nc(-n3ccc(OCC4(C(F)(F)F)CC4)n3)ccc2C(=O)NS(=O)(=O)c2ccccc2)C(C)(C)C1` [Compound 14, N-(Benzenesulfonyl)-6-[3-[[1-(trifluoromethyl)cyclopropyl]methoxy]pyrazol-1-yl]-2-[(4S)-2,2,4-trimethylpyrrolidin-1-yl]pyridine-3-carboxamide], the bioavailability in “Rat IV and PO PK studies” (3 mg/kg) was 58%. Moreover, in the data set “Rat IV and PO PK studies”, the clearance turned out to be 0.12 L/h/kg. This molecule yielded an AUC in “Rat IV and PO PK studies” (3 mg/kg) of 14.7 µg·h/mL. Moreover, the EC50 at F508del-CFTR (setting [1]) was below 0.1 µM; on F508del-CFTR (setting [2]) it was 0.04 µM. Besides, the “PXR Max Induction (% of rifampicin)” value at human PXR is 19 % of rifampicin.
Turning to `C[C@@H]1CN(c2nc(-n3ccc(OCC(C)(C)C)n3)ccc2C(=O)NS(=O)(=O)c2ccccc2)C(C)(C)C1` [Comp. B, reference compound], in the data set “Rat IV and PO PK studies”, the clearance was found to be 1.75 L/h/kg. Moreover, the “PXR Max Induction (% of rifampicin)” value on human PXR is reported as 9 % of rifampicin.
As to `Cc1ccccc1S(=O)(=O)NC(=O)c1ccc(-n2ccc(OCC3(C(F)(F)F)CC3)n2)nc1N1C[C@@H](C)CC1(C)C` [Compound 23, N-(o-Tolylsulfonyl)-6-[3-[[1-(trifluoromethyl)cyclopropyl]methoxy]pyrazol-1-yl]-2-[(4S)-2,2,4-trimethylpyrrolidin-1-yl]pyridine-3-carboxamide], the bioavailability in “Rat IV and PO PK studies” (3 mg/kg) was 69%. In “Rat IV and PO PK studies”, the clearance turned out to be 0.162 L/h/kg. The AUC in the data set “Rat IV and PO PK studies” (3 mg/kg) is 12.5 µg·h/mL. The figures for the EC50 on F508del-CFTR (setting [1]) and on F508del-CFTR (setting [2]) were below 0.1 µM and 0.03 µM, respectively. Besides, the “PXR Max Induction (% of rifampicin)” value on human PXR is 22 % of rifampicin.
As to `C[C@@H]1CN(c2nc(-n3ccc(OCC4C(C)(C)C4(C)C)n3)ccc2C(=O)NS(=O)(=O)c2cccc(F)c2)C(C)(C)C1` [Compound 16, N-(3-Fluorophenyl)sulfonyl-6-[3-[(2,2,3,3-tetramethylcyclopropyl)methoxy]pyrazol-1-yl]-2-[(4S)-2,2,4-trimethylpyrrolidin-1-yl]pyridine-3-carboxamide], the bioavailability in the data set “Rat IV and PO PK studies” (3 mg/kg) is 12%. In addition, the clearance in the data set “Rat IV and PO PK studies” was found to be 1.49 L/h/kg. The AUC in the data set “Rat IV and PO PK studies” (3 mg/kg) stood at 0.25 µg·h/mL. The figures for the EC50 at F508del-CFTR (setting [1]) and on F508del-CFTR (setting [2]) were below 0.1 µM and 0.02 µM, respectively. In addition, the “PXR Max Induction (% of rifampicin)” value on human PXR is on record as 2 % of rifampicin.
For `C[C@@H]1CN(c2nc(-n3ccc(OCC4(C(F)(F)F)CC4)n3)ccc2C(=O)NS(=O)(=O)c2ccc(O)cc2)C(C)(C)C1` [Compound 22, N-(4-Hydroxyphenyl)sulfonyl-6-[3-[[1-(trifluoromethyl)cyclopropyl]methoxy]pyrazol-1-yl]-2-[(4S)-2,2,4-trimethylpyrrolidin-1-yl]pyridine-3-carboxamide], in the data set “Rat IV and PO PK studies” (3 mg/kg), the bioavailability turned out to be 31% and the AUC was 3.6 µg·h/mL. In addition, in the data set “Rat IV and PO PK studies”, the clearance turned out to be 0.402 L/h/kg. On F508del-CFTR (setting [1]), the EC50 lay in the range of 0.1 to 1 µM. Also, the EC50 on F508del-CFTR (setting [2]) was found to be 0.12 µM. Further, the “PXR Max Induction (% of rifampicin)” value at human PXR is reported as 4 % of rifampicin.
Take `C[C@@H]1CN(c2nc(-n3ccc(OCC4(C(F)(F)F)CC4)n3)ccc2C(=O)NS(=O)(=O)c2ccc(C#N)cc2)C(C)(C)C1` [Comp. 27, N-(4-Cyanophenyl)sulfonyl-6-[3-[[1-(trifluoromethyl)cyclopropyl]methoxy]pyrazol-1-yl]-2-[(4S)-2,2,4-trimethylpyrrolidin-1-yl]pyridine-3-carboxamide]: in the data set “Rat IV and PO PK studies” (3 mg/kg), the bioavailability was determined as 100% and the AUC is 20.3 µg·h/mL. In addition, the clearance in “Rat IV and PO PK studies” stood at 0.216 L/h/kg. The EC50 on F508del-CFTR (setting [1]) was 0.1 to 1 µM. For the same molecule, on F508del-CFTR (setting [2]), the EC50 is 0.27 µM. Further, the “PXR Max Induction (% of rifampicin)” value on human PXR is listed as 8 % of rifampicin.
Regarding `C[C@@H]1CN(c2nc(-n3ccc(OCC4C5(CC5)C45CC5)n3)ccc2C(=O)NS(=O)(=O)c2ccccc2)C(C)(C)C1` [Compound 64, N-(Benzenesulfonyl)-6-[3-(dispiro[2.0.2.1]heptan-7-ylmethoxy)pyrazol-1-yl]-2-[(4S)-2,2,4-trimethylpyrrolidin-1-yl]pyridine-3-carboxamide], in “Rat IV and PO PK studies” (3 mg/kg), the bioavailability was 79% and the AUC is 9 µg·h/mL. Also, the clearance in the data set “Rat IV and PO PK studies” is 0.204 L/h/kg. Moreover, the EC50 on F508del-CFTR (setting [1]) is below 0.1 µM. Moreover, at F508del-CFTR (setting [2]), the EC50 was found to be 0.05 µM. For the same molecule, the “PXR Max Induction (% of rifampicin)” value on human PXR is listed as 4 % of rifampicin.
For the molecule `C[C@@H]1CN(c2nc(-n3ccc(OCC4(C(F)(F)F)CC4)n3)ccc2C(=O)NS(=O)(=O)c2cccc(F)c2)C(C)(C)C1` [Comp. 51, N-(3-Fluorophenyl)sulfonyl-6-[3-[[1-(trifluoromethyl)cyclopropyl]methoxy]pyrazol-1-yl]-2-[(4S)-2,2,4-trimethylpyrrolidin-1-yl]pyridine-3-carboxamide], in “Rat IV and PO PK studies” (3 mg/kg), the bioavailability turned out to be 100%. The clearance in the data set “Rat IV and PO PK studies” was 0.312 L/h/kg. This molecule also registered an AUC in “Rat IV and PO PK studies” (3 mg/kg) of 10.5 µg·h/mL. The EC50 was below 0.1 µM at F508del-CFTR (setting [1]) and 0.05 µM at F508del-CFTR (setting [2]). Besides, the “PXR Max Induction (% of rifampicin)” value on human PXR is reported as 17 % of rifampicin.
`C[C@@H]1CN(c2cc(-n3ccc(OCCC4(C(F)(F)F)CC4)n3)ncc2C(=O)NS(=O)(=O)c2ccccc2)C(C)(C)C1` [Comp. 44, (S)—N-(phenylsulfonyl)-6-(3-(2-(1-(trifluoromethyl)cyclopropyl)ethoxy)-1H-pyrazol-1-yl)-4-(2,2,4-trimethylpyrrolidin-1-yl)nicotinamide]: in the data set “Rat IV and PO PK studies” (3 mg/kg), the bioavailability is 81% and the AUC is 8.5 µg·h/mL. For the same molecule, the clearance in “Rat IV and PO PK studies” was found to be 0.3 L/h/kg. Further, the EC50 at F508del-CFTR (setting [1]) fell in the range of 0.1 to 1 µM. Besides, the EC50 on F508del-CFTR (setting [2]) worked out at 0.62 µM. Besides, the “PXR Max Induction (% of rifampicin)” value on human PXR is given as 18 % of rifampicin.
In the case of `COc1ccccc1S(=O)(=O)NC(=O)c1ccc(-n2ccc(OCC3(C(F)(F)F)CC3)n2)nc1N1C[C@@H](C)CC1(C)C` [Comp. 53, N-(2-methoxyphenyl)sulfonyl-6-[3-[[l-(trifluoromethyl)cyclopropyl]methoxy]pyrazol-1-yl]-2-[(4S)-2,2,4-trimethylpyrrolidin-1-yl]pyridine-3-carboxamide], the bioavailability in the data set “Rat IV and PO PK studies” (3 mg/kg) was found to be 98%. In addition, the clearance in “Rat IV and PO PK studies” turned out to be 0.138 L/h/kg. Further, the AUC in the data set “Rat IV and PO PK studies” (3 mg/kg) amounted to 13.7 µg·h/mL. Besides, the EC50 at F508del-CFTR (setting [1]) was below 0.1 µM; on F508del-CFTR (setting [2]), 0.04 µM. In addition, the “PXR Max Induction (% of rifampicin)” value at human PXR is reported as 39 % of rifampicin.
For the molecule `Cc1ccc(S(=O)(=O)NC(=O)c2ccc(-n3ccc(OCC4(C(F)(F)F)CC4)n3)nc2N2C[C@@H](C)CC2(C)C)cc1` [Compound 24, N-(p-Tolylsulfonyl)-6-[3-[[1-(trifluoromethyl)cyclopropyl]methoxy]pyrazol-1-yl]-2-[(4S)-2,2,4-trimethylpyrrolidin-1-yl]pyridine-3-carboxamide], in the data set “Rat IV and PO PK studies” (3 mg/kg), the bioavailability worked out at 98% and the AUC turned out to be 20 µg·h/mL. Further, in “Rat IV and PO PK studies”, the clearance is 0.156 L/h/kg. In addition, the EC50 at F508del-CFTR (setting [1]) is below 0.1 µM. Moreover, the EC50 at F508del-CFTR (setting [2]) is 0.07 µM. Also, the “PXR Max Induction (% of rifampicin)” value on human PXR is on record as 9 % of rifampicin.
